# According to patent US8952024B2, “Herbicidal pyrimidone derivatives” (E I du Pont de Nemours and Company, priority 2009, dated 2015):
# Columns and labels:
# Assay type in all cases: in vivo
# [1] = system: morningglory (Ipomoea spp.); assay: Test A pre-/postemergence plant response; conditions: for Morningglory plant response rating: visual injury, 0 to 100 scale (0 no effect, 100 complete control), approx. ten days
# In short: (§1)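 Greenhouse trial, ~10 days. Soil (loam/sand) sprayed preemergence after seeding; emerged plants (1–2 leaf, 2–10 cm) sprayed postemergence in parallel. Response = visual injury vs untreated control, 0–100.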
# [2] = system: velvetleaf (Abutilon theophrasti); assay: Test A pre-/postemergence plant response; conditions: for Velvetleaf plant response rating: visual injury, 0 to 100 scale (0 no effect, 100 complete control), approx. ten days
# In short: as §1
# [3] = system: large crabgrass (Digitaria sanguinalis); assay: Test A pre-/postemergence plant response; conditions: for Crabgrass, Large plant response rating: visual injury, 0 to 100 scale (0 no effect, 100 complete control), approx. ten days
# In short: as §1
# [4] = system: wheat (Triticum aestivum); assay: Test A pre-/postemergence plant response; conditions: for Wheat plant response rating: visual injury, 0 to 100 scale (0 no effect, 100 complete control), approx. ten days
# In short: as §1
# corn (Zea mays) = assay: Test A pre-/postemergence plant response; conditions: for Corn plant response rating: visual injury, 0 to 100 scale (0 no effect, 100 complete control), approx. ten days
# In short: as §1
# [5] = system: barnyardgrass (Echinochloa crus-galli); assay: Test A pre-/postemergence plant response; conditions: for Barnyardgrass plant response rating: visual injury, 0 to 100 scale (0 no effect, 100 complete control), approx. ten days
# In short: as §1
# [6] = system: giant foxtail (Setaria faberii); assay: Test A pre-/postemergence plant response; conditions: for Foxtail, Giant plant response rating: visual injury, 0 to 100 scale (0 no effect, 100 complete control), approx. ten days
# In short: as §1
# [7] = system: pigweed (Amaranthus retroflexus); assay: Test A pre-/postemergence plant response; conditions: for Pigweed plant response rating: visual injury, 0 to 100 scale (0 no effect, 100 complete control), approx. ten days
# In short: as §1
# [8] = system: umbrella sedge (Cyperus difformis); assay: Test B flooded paddy test; conditions: for Plant response rating, Sedge, Umbrella: Flood (flooded paddy test), 13 to 15 days; for Sedge, Umbrella plant response rating: Flood, 31 g ai/ha, scale 0 to 100 (0 no effect, 100 complete control); for Plant response rating, Flood, Sedge, Umbrella: 250 g ai/ha, flooded paddy test, visual rating on 0 to 100 scale (0 no effect, 100 complete control) after 13 to 15 days
# In short: (§2)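 Flooded-pot test: water raised to 3 cm above soil when treating, compound put in the water, level unchanged thereafter. Plants were at 2 leaves. Readout after 13 to 15 days, visual, relative to controls; 0 signifies no effect and 100 complete control.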
# [9] = system: ducksalad (Heteranthera limosa); assay: Test B flooded paddy test; conditions: for Plant response rating, Ducksalad: Flood (flooded paddy test), 13 to 15 days; for Ducksalad plant response rating: Flood, 31 g ai/ha, scale 0 to 100 (0 no effect, 100 complete control); for Plant response rating, Flood, Ducksalad: 250 g ai/ha, flooded paddy test, visual rating on 0 to 100 scale (0 no effect, 100 complete control) after 13 to 15 days
# In short: as §2
# rice (Oryza sativa) = assay: Test B flooded paddy test; conditions: for Plant response rating, Rice: Flood (flooded paddy test), 13 to 15 days; for Rice plant response rating: Flood, 31 g ai/ha, scale 0 to 100 (0 no effect, 100 complete control); for Plant response rating, Flood, Rice: 250 g ai/ha, flooded paddy test, visual rating on 0 to 100 scale (0 no effect, 100 complete control) after 13 to 15 days
# In short: as §2
# [10] = system: barnyardgrass (Echinochloa crus-galli); assay: Test B flooded paddy test; conditions: for Plant response rating, Barnyardgrass: Flood (flooded paddy test), 13 to 15 days; for Barnyardgrass plant response rating: Flood, 31 g ai/ha, scale 0 to 100 (0 no effect, 100 complete control); for Plant response rating, Flood, Barnyardgrass: 250 g ai/ha, flooded paddy test, visual rating on 0 to 100 scale (0 no effect, 100 complete control) after 13 to 15 days
# In short: as §2
# [11] = Postemergence, 125 g ai/ha, 0 to 100 scale where 0 is no effect and 100 is complete control
# [12] = Preemergence, 125 g ai/ha, 0 to 100 scale, 0 = no effect, 100 = complete control
# [13] = Preemergence, 500 g ai/ha, 0 to 100 scale, 0 = no effect, 100 = complete control
# [14] = 125 g ai/ha, scale 0 to 100, 0 is no effect, 100 is complete control
# [15] = 62 g ai/ha, scale of 0 to 100 where 0 is no effect and 100 is complete control
smiles,measurement,setting,value
CCOCCn1c(-c2cc(F)cc(F)c2)ncc(C(=O)C2=C(O)CCCC2=O)c1=O [Compound 182],"Plant response rating, Morningglory",[1]; [11],100
same,Morningglory plant response rating,"[1]; Postemergence, 500 g ai/ha",100
same,"Plant response rating, Morningglory",[1]; [12],70
same,"Plant response rating, Morningglory",[1]; [13],80
same,"Plant response rating, Velvetleaf",[2]; [11],100
same,Velvetleaf plant response rating,"[2]; Postemergence, 500 g ai/ha",100
same,"Plant response rating, Velvetleaf",[2]; [12],70
same,"Plant response rating, Velvetleaf",[2]; [13],100
same,"Plant response rating, Crabgrass, Large",[3]; [11],80
same,"Crabgrass, Large plant response rating","[3]; Postemergence, 500 g ai/ha",90
same,"Plant response rating, Crabgrass, Large",[3]; [12],100
same,"Plant response rating, Crabgrass, Large",[3]; [13],100
same,"Plant response rating, Wheat",[4]; [11],0
same,Wheat plant response rating,"[4]; Postemergence, 500 g ai/ha",50
same,"Plant response rating, Wheat",[4]; [12],0
same,"Plant response rating, Wheat",[4]; [13],50
same,"Plant response rating, Corn",corn (Zea mays); [11],0
same,Corn plant response rating,"corn (Zea mays); Postemergence, 500 g ai/ha",20
same,"Plant response rating, Corn",corn (Zea mays); [12],0
same,"Plant response rating, Corn",corn (Zea mays); [13],20
same,"Plant response rating, Barnyardgrass",[5]; [11],70
same,Barnyardgrass plant response rating,"[5]; Postemergence, 500 g ai/ha",90
same,"Plant response rating, Barnyardgrass",[5]; [12],70
same,"Plant response rating, Barnyardgrass",[5]; [13],90
same,"Plant response rating, Foxtail, Giant",[6]; [11],50
same,"Foxtail, Giant plant response rating","[6]; Postemergence, 500 g ai/ha",80
same,"Plant response rating, Foxtail, Giant",[6]; [12],50
same,"Plant response rating, Foxtail, Giant",[6]; [13],80
same,"Plant response rating, Pigweed",[7]; [11],80
same,Pigweed plant response rating,"[7]; Postemergence, 500 g ai/ha",100
same,"Plant response rating, Pigweed",[7]; [12],90
same,"Plant response rating, Pigweed",[7]; [13],100
same,"Plant response rating, Sedge, Umbrella",[8]; [14],75
same,"Sedge, Umbrella plant response rating",[8],50
same,"Plant response rating, Ducksalad",[9]; [14],85
same,Ducksalad plant response rating,[9],60
same,"Plant response rating, Rice",rice (Oryza sativa); [14],0
same,Rice plant response rating,rice (Oryza sativa),0
same,"Plant response rating, Barnyardgrass",[10]; [14],0
same,Barnyardgrass plant response rating,[10],0
Cc1ccc(F)cc1-n1c(-c2cc(F)cc(F)c2)ncc(C(=O)C2=C(O)CCCC2=O)c1=O [Compound 183],"Plant response rating, Morningglory",[1]; [11],40
same,Morningglory plant response rating,"[1]; Postemergence, 500 g ai/ha",70
same,"Plant response rating, Morningglory",[1]; [12],20
same,"Plant response rating, Morningglory",[1]; [13],50
same,"Plant response rating, Velvetleaf",[2]; [11],100
same,Velvetleaf plant response rating,"[2]; Postemergence, 500 g ai/ha",100
same,"Plant response rating, Velvetleaf",[2]; [12],100
same,"Plant response rating, Velvetleaf",[2]; [13],100
same,"Plant response rating, Crabgrass, Large",[3]; [11],80
same,"Crabgrass, Large plant response rating","[3]; Postemergence, 500 g ai/ha",100
same,"Plant response rating, Crabgrass, Large",[3]; [12],90
same,"Plant response rating, Crabgrass, Large",[3]; [13],100
same,"Plant response rating, Wheat",[4]; [11],50
same,Wheat plant response rating,"[4]; Postemergence, 500 g ai/ha",80
same,"Plant response rating, Wheat",[4]; [12],0
same,"Plant response rating, Wheat",[4]; [13],50
same,"Plant response rating, Corn",corn (Zea mays); [11],10
same,Corn plant response rating,"corn (Zea mays); Postemergence, 500 g ai/ha",80
same,"Plant response rating, Corn",corn (Zea mays); [12],0
same,"Plant response rating, Corn",corn (Zea mays); [13],0
same,"Plant response rating, Barnyardgrass",[5]; [11],60
same,Barnyardgrass plant response rating,"[5]; Postemergence, 500 g ai/ha",90
same,"Plant response rating, Barnyardgrass",[5]; [12],20
same,"Plant response rating, Barnyardgrass",[5]; [13],100
same,"Plant response rating, Foxtail, Giant",[6]; [11],80
same,"Foxtail, Giant plant response rating","[6]; Postemergence, 500 g ai/ha",100
same,"Plant response rating, Foxtail, Giant",[6]; [12],60
same,"Plant response rating, Foxtail, Giant",[6]; [13],90
same,"Plant response rating, Pigweed",[7]; [11],100
same,Pigweed plant response rating,"[7]; Postemergence, 500 g ai/ha",100
same,"Plant response rating, Pigweed",[7]; [12],90
same,"Plant response rating, Pigweed",[7]; [13],100
same,"Plant response rating, Flood, Sedge, Umbrella",[8],90
same,"Plant response rating, Sedge, Umbrella",[8]; [15],50
same,"Plant response rating, Sedge, Umbrella",[8]; [14],65
same,"Sedge, Umbrella plant response rating",[8],0
same,"Plant response rating, Flood, Ducksalad",[9],95
same,"Plant response rating, Ducksalad",[9]; [15],65
same,"Plant response rating, Ducksalad",[9]; [14],80
same,Ducksalad plant response rating,[9],30
same,"Plant response rating, Flood, Rice",rice (Oryza sativa),0
same,"Plant response rating, Rice",rice (Oryza sativa); [15],0
same,"Plant response rating, Rice",rice (Oryza sativa); [14],0
same,Rice plant response rating,rice (Oryza sativa),0
same,"Plant response rating, Flood, Barnyardgrass",[10],35
same,"Plant response rating, Barnyardgrass",[10]; [15],0
same,"Plant response rating, Barnyardgrass",[10]; [14],0
same,Barnyardgrass plant response rating,[10],0
O=C1CCCC(O)=C1C(=O)c1cnc(-c2ccco2)n(C2CCCCC2)c1=O [Compound 188],"Plant response rating, Morningglory",[1]; [11],90
same,Morningglory plant response rating,"[1]; Postemergence, 500 g ai/ha",100
same,"Plant response rating, Morningglory",[1]; [12],70
same,"Plant response rating, Morningglory",[1]; [13],80
same,"Plant response rating, Velvetleaf",[2]; [11],100
same,Velvetleaf plant response rating,"[2]; Postemergence, 500 g ai/ha",100
same,"Plant response rating, Velvetleaf",[2]; [12],70
same,"Plant response rating, Velvetleaf",[2]; [13],80
same,"Plant response rating, Crabgrass, Large",[3]; [11],80
same,"Crabgrass, Large plant response rating","[3]; Postemergence, 500 g ai/ha",90
same,"Plant response rating, Crabgrass, Large",[3]; [12],30
same,"Plant response rating, Crabgrass, Large",[3]; [13],70
same,"Plant response rating, Wheat",[4]; [11],0
same,Wheat plant response rating,"[4]; Postemergence, 500 g ai/ha",0
same,"Plant response rating, Wheat",[4]; [12],0
same,"Plant response rating, Wheat",[4]; [13],0
same,"Plant response rating, Corn",corn (Zea mays); [11],0
same,Corn plant response rating,"corn (Zea mays); Postemergence, 500 g ai/ha",10
same,"Plant response rating, Corn",corn (Zea mays); [12],0
same,"Plant response rating, Corn",corn (Zea mays); [13],0
same,"Plant response rating, Barnyardgrass",[5]; [11],70
same,Barnyardgrass plant response rating,"[5]; Postemergence, 500 g ai/ha",90
same,"Plant response rating, Barnyardgrass",[5]; [12],0
same,"Plant response rating, Barnyardgrass",[5]; [13],30
same,"Plant response rating, Foxtail, Giant",[6]; [11],40
same,"Foxtail, Giant plant response rating","[6]; Postemergence, 500 g ai/ha",80
same,"Plant response rating, Foxtail, Giant",[6]; [12],10
same,"Plant response rating, Foxtail, Giant",[6]; [13],40
same,"Plant response rating, Pigweed",[7]; [11],90
same,Pigweed plant response rating,"[7]; Postemergence, 500 g ai/ha",100
same,"Plant response rating, Pigweed",[7]; [12],60
same,"Plant response rating, Pigweed",[7]; [13],80
same,"Plant response rating, Flood, Sedge, Umbrella",[8],85
same,"Plant response rating, Sedge, Umbrella",[8]; [15],80
same,"Plant response rating, Flood, Ducksalad",[9],85
same,"Plant response rating, Ducksalad",[9]; [15],70
same,"Plant response rating, Flood, Rice",rice (Oryza sativa),15
same,"Plant response rating, Rice",rice (Oryza sativa); [15],0
same,"Plant response rating, Flood, Barnyardgrass",[10],0
same,"Plant response rating, Barnyardgrass",[10]; [15],0
